From US20040126343A1, “Nail drug delivery” (priority 2002, published 2004)
Values belong to the molecule of their own block, whether it stands above or below them.

Experiments:
[1] = cited from earlier work
[2] = Penetration of radiolabeled model compounds into human nail plate, diffusion cell, twice daily topical dosing for 7 days; details: for Increase of radioactivity in the ventral surface of the nail plate, carrier formulation compared with saline control / Radioactive Content, Dorsal/intermediate center / Radioactive Content, Ventral/intermediate center: twice daily for 7 days; for Increase of radioactivity in the ventral surface of the nail plate, carrier formulation compared with saline control: p<0.05; for Percent Applied Dose, Cotton supporting bed / Percent Applied Dose, Dorsal/intermediate center / Percent Applied Dose, Remainder of nail / Percent Applied Dose, Subtotal (nail) / Percent Applied Dose, Surface Washing / Percent Applied Dose, Total (mass balance) / Percent Applied Dose, Ventral/intermediate center / Radioactive Content, Dorsal/intermediate center / Radioactive Content, Ventral/intermediate center: mean (SD) of five tests
Experimental: Nail plates were collected from adult human cadavers and stored in a closed container at 0° C. Before each experiment, nail samples were gently washed with normal saline to remove any contamination, then rehydrated by placing them for 3 h on a cloth wetted with normal saline.
The test formulation contains 45% DMSO, 11% glycerin, 11% ethanol, 11% propylene glycol and water, as discussed in Hewitt P G, et al., 1998, Pharm Res 15:988-992. Normal saline (ABBOTT Laboratories, North Chicago, Ill.) was the control. […] A 5 μL aliquot was removed from each vial and radioactivity was measured in a Packard Liquid Scintillation Counter (model 1500).
A 5 μL dosing aliquot of each of the six test solutions was applied to the surface of a nail plate with a microsyringe twice daily, approximately 8 h apart for 7 days. Starting the second day, each morning before dosing, the surface of the nail was washed with cotton tips in a cycle, as follows: a dry tip, then a tip wetted with 50% skin cleansing liquid Ivory soap, then a tip wetted with distilled water, then another tip wetted with distilled water, then a final dry tip. This simulated a daily bathing. The washing samples from each cycle from each nail were pooled and collected by breaking off the cotton tip into scintillation glass vials. An aliquot of 5.0 mL methanol was added into each vial to extract test material. The radioactivity of each sample was measured in a liquid scintillation counter.
A Teflon® one-chamber diffusion cell (AMIE Systems) was used to hold each nail. To approximate physiological conditions, a small cotton ball wetted with 0.1 mL normal saline was placed in the chamber to serve as a “nail bed” and provide moisture for the nail plate. On day 5, 0.1 mL normal saline was injected through the inlet into the chamber to keep the cotton ball wet. A 1.5×1.5 cm aluminum sheet (0.24 mm thickness) with a hole in the center (1.0 cm diameter) was centered and glued to the top (dorsal) surface of the nail as a “frame” for the seal. The aluminum sheet frame flattens the curved nail and extends the surface area of the nail plate to fit the size of the top cover, so that potential leaking is prevented. The nail plate was placed on a ledge inside the receptor (1.0 cm in diameter and 0.5 cm high), sheet side up. The ventral (inner) surface of the nail was placed face down and rested on the wet cotton ball. Hydration of the nail plate and the supporting cotton bed was measured with a relative humidity/temperature meter (Corneometer CM 820; Courage & Khazaka, Cologne, Germany). Hydration was expressed digitally in arbitrary units (AU).
The rim of the cell base was covered with silicon gel and the top cover was set into the gel to prevent leaking. The metal holder was then tightly screwed into place.
The cells were placed on a platform in a large glass holding tank filled with saturated sodium phosphate solution. A digital relative humidity/temperature meter was used for monitoring room temperature, the chamber temperature, and humidity. The holding tank was then covered, thereby maintaining the cells at a constant humidity of 40%.
The sampling instrument consisted of a drill (Dremel™ model 2850; Dremel Inc., Racine, Wis.), a drill press (Dremel™), an adjustable stage (Fisher, Pittsburgh, Pa.) with an adjustable holder, and a high-speed cutter ( 5/16 inch or 7.9 mm in diameter).
After completion of the incubation phase, the nail plate was removed from the diffusion cell. The aluminum sheet frame was peeled off and placed in a glass scintillation vial. The nail plate was transferred to a clean Teflon® diffusion cell for processing. The nail plate was inverted so that the ventral (nail bed) surface faced up and the dorsal (outer) dosed surface faced down. A top cover was tightly screwed into place. The cell was placed in the middle of the holds on the adjustable stage.

[3] = cited from earlier work; remark: listed apart in the source
[4] = Test Carrier Formulation (45% DMSO)

Structure (SMILES): O=C(O)Cc1ccccc1Nc1c(Cl)cccc1Cl [diclofenac sodium]
- Permeability of human skin with the percutaneous drug-enhancing formulation ([1]; carrier formulation): enhanced the permeability

Structure (SMILES): O=C(O)Cc1ccccc1Nc1c(Cl)cccc1Cl [diclofenac]
- Human skin penetration over the 48 h of study ([1]; multiple dosing, four doses/day for 2 days, in the carrier, compared with a saline control): continually increased

Structure (SMILES): NC(N)=O [Urea, urea]
- Radioactive Content, Dorsal/intermediate center ([2]; Saline Formulation): 0.4 (0.3) μg Eq./g Nail Sample
- Radioactive Content, Ventral/intermediate center ([2]; Saline Formulation): 0.2 (0.09) μg Eq./g Nail Sample
- Radioactive Content, Dorsal/intermediate center [2, 4]: 0.8 (0.5) μg Eq./g Nail Sample
- Radioactive Content, Ventral/intermediate center [2, 4]: 0.35 (0.15) μg Eq./g Nail Sample
- Increase of radioactivity in the ventral surface of the nail plate, carrier formulation compared with saline control [2]: approximately 50%
- pKa [3]: 0.1

Other lines, results leading:

- Increase of radioactivity in the ventral surface of the nail plate, carrier formulation compared with saline control [2]: approximately 50%
Structure (SMILES): CC(=O)N1CCN(c2ccc(OCC3COC(Cn4ccnc4)(c4ccc(Cl)cc4Cl)O3)cc2)CC1 (stereo not shown) [Ketoconazole, ketoconazole]

- Percent Applied Dose, Cotton supporting bed ([2]; Saline Formulation): 3.66 (2.02) Percent Applied Dose
- Percent Applied Dose, Dorsal/intermediate center ([2]; Saline Formulation): 47.10 (7.76) Percent Applied Dose
- Percent Applied Dose, Remainder of nail ([2]; Saline Formulation): 14.20 (5.10) Percent Applied Dose
- Percent Applied Dose, Subtotal (nail) ([2]; Saline Formulation): 63.83 (9.54) Percent Applied Dose
- Percent Applied Dose, Surface Washing ([2]; Saline Formulation): 20.69 (5.97) Percent Applied Dose
- Percent Applied Dose, Total (mass balance) ([2]; Saline Formulation): 88.18 (5.52) Percent Applied Dose
- Percent Applied Dose, Ventral/intermediate center ([2]; Saline Formulation): 2.53 (0.51) Percent Applied Dose
- Radioactive Content, Dorsal/intermediate center ([2]; Saline Formulation): 71.6 (10.6) μg Eq./g Nail Sample
- Radioactive Content, Ventral/intermediate center ([2]; Saline Formulation): 7.0 (1.1) μg Eq./g Nail Sample
- Radioactive Content, Dorsal/intermediate center [2, 4]: 16.3 (4.2) μg Eq./g Nail Sample
- Radioactive Content, Ventral/intermediate center [2, 4]: 10.2 (0.6) μg Eq./g Nail Sample
- Percent Applied Dose, Cotton supporting bed ([2]; Test Carrier Formulation): 2.23 (0.75) Percent Applied Dose
- Percent Applied Dose, Dorsal/intermediate center ([2]; Test Carrier Formulation): 4.96 (2.13) Percent Applied Dose
- Percent Applied Dose, Remainder of nail ([2]; Test Carrier Formulation): 3.87 (1.26) Percent Applied Dose
- Percent Applied Dose, Subtotal (nail) ([2]; Test Carrier Formulation): 15.87 (3.76) Percent Applied Dose
- Percent Applied Dose, Surface Washing ([2]; Test Carrier Formulation): 70.86 (2.62) Percent Applied Dose
- Percent Applied Dose, Total (mass balance) ([2]; Test Carrier Formulation): 88.96 (2.29) Percent Applied Dose
- Percent Applied Dose, Ventral/intermediate center ([2]; Test Carrier Formulation): 7.04 (2.67) Percent Applied Dose
- Increase of radioactivity in the ventral surface of the nail plate, carrier formulation compared with saline control [2]: approximately 50%
Structure (SMILES): O=C(O)c1ccccc1O [salicylic acid]
